Measured values published in publication PMC3890372 (Nature communications, 2013).

What was measured:
[1] = biological target: T1, human Smo CRD (Smoothened) (Homo sapiens, UniProt Q99835); test: Bio-Layer Interferometry; format: binding
T1 sequence (Q99835 65-177): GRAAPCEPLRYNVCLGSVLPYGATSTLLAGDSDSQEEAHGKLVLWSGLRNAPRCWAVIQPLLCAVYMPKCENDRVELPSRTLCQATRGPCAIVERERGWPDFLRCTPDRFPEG

[2] = biological target: T2, Drosophila Smo CRD (Smoothened) (Drosophila melanogaster, UniProt P91682); test: Bio-Layer Interferometry; format: binding
T2 sequence (P91682 85-202): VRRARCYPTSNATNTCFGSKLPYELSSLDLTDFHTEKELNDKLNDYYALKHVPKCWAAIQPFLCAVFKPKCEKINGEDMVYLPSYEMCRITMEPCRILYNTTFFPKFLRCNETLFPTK

Compound: CCCC1O[C@@H]2C[C@H]3[C@@H]4CCC5=CC(=O)C=C[C@]5(C)[C@H]4[C@@H](O)C[C@]3(C)[C@]2(C(=O)CO)O1 (some centres unmarked) [Bud, budesonide]
- Kd [1]: 52 ± 16 µM
- Kd [2]: 120 ± 98 µM
